Source: ChEMBL document CHEMBL2095176, “GSK Tuberculosis Screening Data”
≈ marks a conversion by molar mass, not a printed value.

Each compound was assayed on Mycobacterium tuberculosis variant bovis BCG (assay: microbe, parasite or virus in culture).
Type: functional

Row | SMILES | MIC90 [µM]
1 | CC[C@H]1CN2CC[C@@H]1C[C@H]2[C@H](O)c1cc(-c2cccnc2)nc2ccc(OC)cc12 | 8.3 (≈ 3.35 µg/mL)
2 | COc1ccc(-c2nnc3sc(Cc4ccccc4)nn23)cc1 | 2.7 (≈ 0.87 µg/mL)
3 | COc1ccc(S(=O)(=O)Nc2ccc(Nc3ccccc3)cc2OC)cc1 | 3 (≈ 1.15 µg/mL)
4 | O=C(CSc1nc(-c2ccccc2)cs1)NNC(=O)c1cccs1 | 9.8 (≈ 3.68 µg/mL)
5 | CCOc1ccc(-c2nc(CNCCc3ccc(F)cc3)cs2)cc1.O=C(O)C(=O)O | 9.9
6 | Cc1nn(CC(C)C)c(Cl)c1C(=O)Nc1nc(-c2ccccn2)cs1 | 10 (≈ 3.76 µg/mL)
7 | Cc1ccc(Cl)c2sc(N(CCN(C)C)C(=O)CS(=O)(=O)c3ccc(F)cc3)nc12 | 6.4 (≈ 3.01 µg/mL)
8 | CN(C)C1CCN(C(=O)c2csc(-c3cccc(Cl)c3Cl)n2)C1 (centres undefined) | 8.5 (≈ 3.15 µg/mL)
9 | C[C@@H]1CN(c2ncnc3c2nc(C2CC2)n3C2CCNC2)C[C@H](C)O1 (some centres undefined) | 7.5 (≈ 2.57 µg/mL)
10 | c1ccc(CNc2ncc(-c3ccc(CNCC4CCCO4)cc3)cn2)cc1 (centres undefined) | 8.8 (≈ 3.3 µg/mL)
11 | Cc1cc(NC(=O)c2cccs2)n(-c2nc(C)c(C)c(=O)[nH]2)n1 | 1.8 (≈ 0.593 µg/mL)
12 | O=C(Nc1nc(-c2ccccn2)cc2ccccc12)c1cccc(Cl)c1 | 3 (≈ 1.08 µg/mL)
13 | Cc1cc(C)c2cc(CN(Cc3cccnc3)C(=O)c3ccccc3)c(Cl)nc2c1 | 8.8 (≈ 3.66 µg/mL)
14 | O=C(CC1NC(=O)c2ccccc21)Nc1cccc(-c2cc(-c3c(Cl)cccc3Cl)no2)c1 (centres undefined) | 5 (≈ 2.39 µg/mL)
15 | Nn1c(=O)oc2ccc(Cl)cc2c1=O | 2.8 (≈ 0.595 µg/mL)
16 | O=C(Nc1ccccc1-c1nc(Cl)cs1)OCC1CCNCC1 | 5.2 (≈ 1.83 µg/mL)
17 | CSc1ccc(-c2nnc(NC(=O)c3cc(Cl)sc3Cl)o2)cc1 | 9.4 (≈ 3.63 µg/mL)
18 | CCn1c(-c2ccccc2)nc2c(-c3ccc(C)cc3)ncc(OCCCN)c21 | 8.8 (≈ 3.4 µg/mL)
19 | COc1cccc(C(=O)Nc2nc(-c3ccccn3)cs2)c1 | 7.6 (≈ 2.37 µg/mL)
20 | O=C(Cc1ccc(Cl)c(Cl)c1)Nc1nc(-c2ccccn2)cs1 | 3.2 (≈ 1.17 µg/mL)
21 | O=c1nc(Oc2ccccc2)c(F)c[nH]1 | 4.2 (≈ 0.866 µg/mL)
22 | Cc1ccc(-c2nnc(NC(=O)c3cccc(F)c3)o2)cc1C | 5 (≈ 1.56 µg/mL)
23 | CC1=NN(C(=O)c2ccco2)C(O)(c2ccccc2)C1 (centres undefined) | 4.2 (≈ 1.14 µg/mL)
24 | Cc1ccc(C)c(-c2nnc(NC(=O)c3ccc(Cl)s3)o2)c1 | 2.8 (≈ 0.935 µg/mL)
25 | O=C(CSc1ccccc1)Nc1nc(-c2ccccn2)cs1 | 6.7 (≈ 2.19 µg/mL)

Row | SMILES | MIC90 [µM]
26 | O=C(Nc1ccccc1-c1nc(C2CCC2)cs1)OCC1CCNCC1.O=C(O)C(F)(F)F | 6.4
27 | NC1CCCN(c2ncnc(-c3ccc4c(c3)CCC4)n2)C1 (centres undefined) | 9.3 (≈ 2.75 µg/mL)
28 | O=C(O)c1ccccc1COc1ccccc1 | 0.5 (≈ 0.114 µg/mL)
29 | O=C1NN=C(c2ccc3c(c2)OCO3)N[C@H]1Cc1c[nH]c2ccccc12 | 6.2 (≈ 2.16 µg/mL)
30 | Cc1ccc(NC(=O)c2cccc(Cl)c2F)cc1-c1ccc(C(N)=O)cc1 | 9.5 (≈ 3.64 µg/mL)
31 | N[C@H]1CC[C@H](NCc2ccc(O)c(C(=O)NCc3ccc(Cl)c(Cl)c3)c2)CC1 | 8.5 (≈ 3.59 µg/mL)
32 | CCOc1ccc(-c2nc(-c3ccc(C(F)(F)F)c(O[C@@H]4CCN(C)C4)c3)no2)cc1 | 3.2 (≈ 1.39 µg/mL)
33 | c1ccc(Nc2nc(-c3ccccn3)cs2)nc1 | 0.9 (≈ 0.229 µg/mL)
34 | O=C(CNc1ccccc1Nc1ccccc1)N1CCCC1 | 8.2 (≈ 2.42 µg/mL)
35 | CC(C)COc1ccc(C(=O)Nc2ccc(N3CCN(C)CC3)cc2)cc1 | 6.9 (≈ 2.54 µg/mL)
36 | CCCCOc1ccc(C(=O)Nc2nnc(-c3ccccc3)o2)cc1 | 3.1 (≈ 1.05 µg/mL)
37 | COCCCNC(=N)c1ccc(NC(=O)c2ccc(C(=O)Nc3ccc(C(=N)NCCCOC)cc3)cc2)cc1 | 0.5 (≈ 0.272 µg/mL)
38 | CN(C)S(=O)(=O)c1ccc(C(=O)Nc2nnc(-c3ccc(Br)cc3)o2)cc1 | 8 (≈ 3.61 µg/mL)
39 | Cc1ccc(C(=O)Nc2nnc(-c3ccccc3Cl)o2)cc1 | 6.1 (≈ 1.91 µg/mL)
40 | CN(C)c1cc(C(=O)NCC2CCCCC2)ccc1NC(=O)OCc1ccccc1 | 5.6 (≈ 2.29 µg/mL)
41 | COc1ccc(S(=O)(=O)Nc2ccccc2Nc2ccc(C)cc2)cc1 | 2.8 (≈ 1.03 µg/mL)
42 | Cn1c(CNCCc2nc(C(=O)N3Cc4ccccc4C3)cs2)nc2ccccc21 | 8.1 (≈ 3.38 µg/mL)
43 | Cc1nc2ccccn2c1C(=O)NCc1ccccc1 | 3.4 (≈ 0.902 µg/mL)
44 | CC(=O)N(C)c1ccc(Oc2ccnc(NCc3c(C)cccc3C)n2)cc1 | 9.5 (≈ 3.58 µg/mL)
45 | O=C(CSc1ccc(Cl)cc1)NNC(=O)c1ccncc1 | 8.1 (≈ 2.61 µg/mL)
46 | COc1ccc2nc(C)cc(OCC(=O)NCc3ccccc3)c2c1 | 3.6 (≈ 1.21 µg/mL)
47 | CSc1cccc(-c2nnc(NC(=O)c3ccc(Cl)s3)o2)c1 | 9.6 (≈ 3.38 µg/mL)
48 | O=C(CCc1cccs1)Nc1nc(-c2ccccn2)cs1 | 6.4 (≈ 2.02 µg/mL)
49 | CN1CCc2c(cccc2NC(=O)c2cc(Br)cc3c2OCC3)C1 | 9.8 (≈ 3.8 µg/mL)
50 | O=C(Nc1nnc(-c2ccc(Cl)s2)o1)c1ccc(Cl)s1 | 7.5 (≈ 2.6 µg/mL)

Row | SMILES | MIC90 [µM]
51 | c1ccc(SCc2nn3c(-c4ccccc4)nnc3s2)cc1 | 7.5 (≈ 2.43 µg/mL)
52 | CC(=O)c1cccc(NC(=O)N(CCc2cccnc2)Cc2csc(-c3ccc(CNCc4ccccc4)cc3)n2)c1 | 2.6 (≈ 1.5 µg/mL)
53 | N#Cc1cc(C(=O)COc2ccc(CC3SC(=O)NC3=O)cc2)ccc1N (centres undefined) | 1.1 (≈ 0.42 µg/mL)
54 | O=C(NCc1ccc2c(c1)OCO2)c1c(C(F)(F)F)nc2ccccn12 | 3.4 (≈ 1.24 µg/mL)
55 | CCc1ccc(C2CC(C(F)(F)F)n3ncc(C(=O)NCc4ccc5c(c4)OCO5)c3N2)cc1 (centres undefined) | 4.8 (≈ 2.27 µg/mL)
56 | COc1cccc(-c2cc(OC[C@@H]3CCCN3)cnc2-c2cccc(C(F)(F)F)c2)c1 | 5.9 (≈ 2.53 µg/mL)
57 | CCS(=O)(=O)c1ccc(C(=O)Nc2nc(-c3ccccn3)cs2)cc1 | 3.7 (≈ 1.38 µg/mL)
58 | Cc1ccc2nc(C(F)(F)F)c(C(=O)NCc3ncc(C(F)(F)F)cc3Cl)n2c1 | 9.9 (≈ 4.32 µg/mL)
59 | Cc1ccc(OCC(=O)Nc2cc(C)nn2-c2nc(C)cc(O)n2)cc1 | 3.6 (≈ 1.27 µg/mL)
60 | CCOc1ccc(CC(=O)Nc2cc(C)nn2-c2nc(C)c(CC)c(=O)[nH]2)cc1 | 3.3 (≈ 1.31 µg/mL)
61 | Cc1cc(CN2CCC3(CC2)OCCc2sccc23)oc1C | 2.1 (≈ 0.667 µg/mL)
62 | O=C(Nc1nc(-c2ccccn2)cs1)c1cc2c(s1)CCCCC2 | 3.1 (≈ 1.1 µg/mL)
63 | CC(=O)N1CCc2ccc(/C=C/C(=O)O)cc21 | 2.1 (≈ 0.486 µg/mL)
64 | CCCSc1ncccc1C(=O)Nc1ccccc1Nc1ccccc1 | 0.8 (≈ 0.291 µg/mL)
65 | CCc1nn2c(C3CCCNC3)ccnc2c1-c1ccc(OC)cc1 (centres undefined) | 1.5 (≈ 0.505 µg/mL)
66 | CCn1c(NC(=O)Cc2ccc(Cl)cc2)nc2ccccc21 | 9.8 (≈ 3.08 µg/mL)
67 | COc1ccc(CCC(=O)Nc2ccccc2Nc2ccc(OC)cc2)cc1 | 3.9 (≈ 1.47 µg/mL)
68 | O=C(Nc1nnc(-c2ccccc2)o1)c1ccc(Cl)s1 | 9.8 (≈ 3 µg/mL)
69 | C=CCNCCS(=O)(=O)c1cccc(Nc2ncc(-c3cccc(F)c3)cn2)c1 | 9.6 (≈ 3.96 µg/mL)
70 | Cc1ccc(-c2nnc3sc(Cc4cccs4)nn23)cc1 | 5.5 (≈ 1.72 µg/mL)
71 | CCn1c(-c2nonc2N)nc2c(-c3cccc(Cl)c3)ncc(OCCCNCCc3c[nH]cn3)c21 | 4.3 (≈ 2.18 µg/mL)
72 | O=C(Nc1ccccc1-c1nc(Cl)cs1)OCCC1CCCCN1 (centres undefined) | 0.2 (≈ 0.0732 µg/mL)
73 | COc1ccc2nc(C)cc(OCC(=O)Nc3ccccc3OC)c2c1 | 1.4 (≈ 0.493 µg/mL)
74 | Cc1cc2cc(C)c(NCCN)nc2cc1C | 5.7 (≈ 1.31 µg/mL)
75 | Nc1ccccc1NC1CCN(Cc2ccccc2)CC1 | 3.6 (≈ 1.01 µg/mL)

Row | SMILES | MIC90 [µM]
76 | O=C(Nc1nc(-c2ccccn2)cs1)c1cncn1-c1ccccc1 | 4.9 (≈ 1.7 µg/mL)
77 | c1ccc(-c2nc(NC3CCCCC3)cc(C3CC3)n2)nc1 | 3.7 (≈ 1.09 µg/mL)
78 | Cc1cc(C)c(C)c(OCCCCNCc2ccco2)c1 | 7.8 (≈ 2.24 µg/mL)
79 | O=C(Nc1nc(-c2ccccn2)cs1)c1ccc(Br)o1 | 3.5 (≈ 1.23 µg/mL)
80 | COc1ccc(-c2cnc(Nc3cccc(S(=O)(=O)CCN4CCc5ccccc5C4)c3)nc2)cn1 | 5.7 (≈ 2.86 µg/mL)
81 | Cc1ccc2c(c1)c(=O)cc(C(F)(F)F)n2CCNC(=O)c1ccccc1F | 9.4 (≈ 3.69 µg/mL)
82 | O=S(=O)(CCNCC1CC1)c1cccc(Nc2ccc(-c3cccc(F)c3)cn2)c1 | 5.3 (≈ 2.26 µg/mL)
83 | CCc1ccc(S(=O)(=O)Nc2cc(CN3CCN(CCC(C)C)CC3)ccc2C)cc1.O=C(O)C(F)(F)F.O=C(O)C(F)(F)F | 6.3
84 | CCCCOc1ccc(C(=O)Nc2nc(-c3ccccn3)cs2)cc1OCC | 3.6 (≈ 1.43 µg/mL)
85 | O=C(NC12CC3CC(CC(C3)C1)C2)c1cc2cc(Cl)ccc2[nH]1 | 0.8 (≈ 0.263 µg/mL)
86 | O=C(COc1ccccc1F)Nc1nc(-c2ccccn2)cs1 | 8.7 (≈ 2.87 µg/mL)
87 | Cc1ccc2nc(C(F)(F)F)c(C(=O)NCc3ccc4c(c3)OCO4)n2c1 | 1.8 (≈ 0.679 µg/mL)
88 | C=CCNCCS(=O)(=O)c1cccc(Nc2ccc(-c3cccc(F)c3)cn2)c1 | 3.1 (≈ 1.28 µg/mL)
89 | COc1ccc(-c2ccc(Nc3cccc(S(=O)(=O)CCNCC4CCCO4)c3)nc2)cn1 (centres undefined) | 7 (≈ 3.28 µg/mL)
90 | CCCc1ccc(NC(=O)c2ccc(CN3CCN(Cc4ccsc4)CC3)cc2)cc1 | 5.6 (≈ 2.43 µg/mL)
91 | O=C(C=Cc1ccccc1)Nc1nc(-c2ccccn2)cs1 | 3.3 (≈ 1.01 µg/mL)
92 | O=C(CCSc1ccc(Cl)cc1)Nc1nc(-c2ccccn2)cs1 | 3.9 (≈ 1.47 µg/mL)
93 | Cc1ncc(C(=O)Nc2cccc(-c3cc(-c4c(Cl)cccc4Cl)no3)c2)c(-c2ccccc2)n1 | 1.2 (≈ 0.602 µg/mL)
94 | Cc1ccc(S(=O)(=O)c2nc(S(=O)(=O)c3ccccc3)sc2Cl)cc1 | 9.6 (≈ 3.97 µg/mL)
95 | Cc1ccc(-c2ccc(SCC(=O)Nc3nonc3C)nn2)cc1 | 6.8 (≈ 2.32 µg/mL)
96 | O=C(Nc1nc(-c2ccccn2)cs1)c1cc2c(F)cccc2s1 | 2.1 (≈ 0.746 µg/mL)
97 | Cc1ccc(C2CC(C(F)(F)F)n3ncc(C(=O)NCc4ccc5c(c4)OCO5)c3N2)cc1 (centres undefined) | 1.9 (≈ 0.871 µg/mL)
98 | COc1ccc(CCNC(=O)c2cc(-c3ccc(OC)c(OC)c3)on2)cc1OC | 4.2 (≈ 1.73 µg/mL)
99 | CCc1nc(N2CCNCC2)c2c(C)nn(-c3ccc(OC)cc3)c2n1 | 1.1 (≈ 0.388 µg/mL)
